Laboratory results reported in US12102089B2, “Method for inactivating mold spores” (DSM IP ASSETS B.V., priority 2017, dated 2024).

Assay: LC-MS/MS analysis of natamycin and mycosamine in heated ice tea sample
Type: physicochemical
Conditions: 10 ppm natamycin at t=0, heated at 70° C.
Protocol: For the analysis of mycosamine at low concentrations (ppb level) a sample preparation is used with a cation exchange SPE material to isolate mycosamine from the sample matrix and/or remove possible interfering impurities therefrom. The analysis was performed on LC-MS/MS on a ZIC-HILIC column. For the identification and (semi) quantification a reference of mycosamine was prepared. The concentration of mycosamine in this reference was determined with ^1H-NMR.

- mycosamine found in sample (Example 1 ice tea sample (pH 3.15)): 2 mg/L
- mycosamine found in sample (Example 2 ice tea sample): 2 mg/L
- mycosamine found in sample (Example 3 ice tea sample): 2 mg/L
Compound: C[C@@H](O)[C@@H](O)[C@H](N)[C@H](O)C=O [mycosamine]
